Source: ChEMBL document CHEMBL1156650, “Furan oligomers and beta-carbolines from terrestrial streptomycetes” (J Nat Prod, 2008)
The source made the active and inactive calls.

What was measured:
Format in all cases: functional, organism-based
Rhizomucor miehei = assay: Antimicrobial activity against Mucor miehei by agar diffusion test
Chlorella sorokiniana = assay: Antimicrobial activity against Chlorella sorokiniana by agar diffusion test
Desmodesmus subspicatus = assay: Antimicrobial activity against Scenedesmus subspicatus by agar diffusion test
Candida albicans = assay: Antimicrobial activity against Candida albicans by agar diffusion test
Bacillus subtilis = assay: Antimicrobial activity against Bacillus subtilis by agar diffusion test
Escherichia coli = assay: Antimicrobial activity against Escherichia coli by agar diffusion test
Chlorella vulgaris = assay: Antimicrobial activity against Chlorella vulgaris by agar diffusion test
Staphylococcus aureus = assay: Antimicrobial activity against Staphylococcus aureus by agar diffusion test
[1] = test system: Streptomyces viridochromogenes; assay: Antimicrobial activity against Streptomyces viridochromogenes Tu57 by agar diffusion test

Measured: Activity

COC(OCc1ccc(C=O)o1)c1ccc(CO)o1 (configuration not stated)
inactive: all assays above

O=C(O)/C=C/C(=O)c1nccc2c1[nH]c1ccccc12
inactive: all assays above

COC(=O)/C=C/C(=O)c1nccc2c1[nH]c1ccccc12
inactive: all assays above

OCc1ccc(-c2nccc3c2[nH]c2ccccc23)o1
inactive: all assays above

CC(=O)OCc1ccc(COC(C)=O)o1
inactive: all assays above

CC1=C(O)C(=O)/C(=C\c2ccc(CO)o2)O1
inactive: all assays above

COC(OCc1ccc(C(OC)OCc2ccc(C=O)o2)o1)c1ccc(CO)o1 (configuration not stated)
inactive: all assays above

CC(=O)OCc1ccc(CO)o1
inactive: all assays above
